The values below come from paper PMC6834573, “Novel insights into transketolase activation by cofactor binding identifies two native species subpopulations” (Scientific Reports, 2019).

Series [1] has as its target T1, wild-type E. coli transketolase (TK; TKhigh / TKlow subpopulations) (Escherichia coli, UniProt P27302).
T1 construct: gene tktA; full length, N-terminal His6-tag kept, from plasmid pQR791 in E. coli XL10-gold; apo form after dialysis; homodimer; about one third oxidised (TKhigh), rest unmodified (TKlow)
Nature of the series: intrinsic fluorescence quenching (ex […] nm, em […] nm), double-Hill fit. The conditions noted are these: read-out: Kd(high). Format: binding.

For series [2], the target named is T1, wild-type E. coli transketolase (TK; TKhigh / TKlow subpopulations). The series is described as above. Format: binding. The conditions noted are these: second site, 9 mM Mg2+, 50 mM Tris-HCl pH 7.0, 22 °C, 0.05 mg/mL TK, low-affinity subpopulation TKlow (chemically unmodified enzyme).
Series [3] deals with the molecule itself. Nature of the series: AUC; sedimentation velocity, apoTK at 0.2 mg/mL without Mg2+ and TPP, 20 °C, pH 7.0, 40,000 rpm, c(s) analysis with SEDFIT; dimer to monomers.

T1 sequence (P27302 whole entry): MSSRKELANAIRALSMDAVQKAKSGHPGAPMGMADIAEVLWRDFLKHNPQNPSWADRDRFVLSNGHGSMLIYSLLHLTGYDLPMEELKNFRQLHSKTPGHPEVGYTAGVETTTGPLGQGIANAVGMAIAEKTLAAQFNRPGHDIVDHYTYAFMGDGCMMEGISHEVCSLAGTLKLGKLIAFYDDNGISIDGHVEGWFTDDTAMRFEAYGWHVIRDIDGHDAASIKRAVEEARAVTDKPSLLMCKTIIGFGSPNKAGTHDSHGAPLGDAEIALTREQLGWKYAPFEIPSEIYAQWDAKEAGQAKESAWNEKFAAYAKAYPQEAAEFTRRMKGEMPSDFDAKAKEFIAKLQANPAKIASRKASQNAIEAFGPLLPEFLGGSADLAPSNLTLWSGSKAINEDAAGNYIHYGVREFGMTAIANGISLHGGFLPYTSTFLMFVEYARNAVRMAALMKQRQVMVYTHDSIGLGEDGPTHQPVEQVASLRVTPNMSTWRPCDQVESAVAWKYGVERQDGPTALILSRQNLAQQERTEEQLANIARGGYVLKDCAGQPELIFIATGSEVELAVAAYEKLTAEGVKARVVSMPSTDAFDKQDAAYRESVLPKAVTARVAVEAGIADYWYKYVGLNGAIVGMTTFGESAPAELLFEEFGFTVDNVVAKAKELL

Consider `Cc1ncc(C[n+]2csc(CCOP(=O)(O)OP(=O)(O)O)c2C)c(N)n1` [TPP, thiamine pyrophosphate], for which the Kd in series [1] came to 2.29 ± 0.23 µM. Moreover, in series [2], the “Kd(low)” value came out at 276 ± 25 µM.

B1: Wild-type E. coli transketolase (apo-transketolase) (enzyme)
chain: SSRKELANAIRALSMDAVQKAKSGHPGAPMGMADIAEVLWRDFLKHNPQNPSWADRDRFVLSNGHGSMLIYSLLHLTGYDLPMEELKNFRQLHSKTPGHPEVGYTAGVETTTGPLGQGIANAVGMAIAEKTLAAQFNRPGHDIVDHYTYAFMGDGCMMEGISHEVCSLAGTLKLGKLIAFYDDNGISIDGHVEGWFTDDTAMRFEAYGWHVIRDIDGHDAASIKRAVEEARAVTDKPSLLMCKTIIGFGSPNKAGTHDSHGAPLGDAEIALTREQLGWKYAPFEIPSEIYAQWDAKEAGQAKESAWNEKFAAYAKAYPQEAAEFTRRMKGEMPSDFDAKAKEFIAKLQANPAKIASRKASQNAIEAFGPLLPEFLGGSADLAPSNLTLWSGSKAINEDAAGNYIHYGVREFGMTAIANGISLHGGFLPYTSTFLMFVEYARNAVRMAALMKQRQVMVYTHDSIGLGEDGPTHQPVEQVASLRVTPNMSTWRPCDQVESAVAWKYGVERQDGPTALILSRQNLAQQERTEEQLANIARGGYVLKDCAGQPELIFIATGSEVELAVAAYEKLTAEGVKARVVSMPSTDAFDKQDAAYRESVLPKAVTARVAVEAGIADYWYKYVGLNGAIVGMTTFGESAPAELLFEEFGFTVDNVVAKAKELL
notes: Transketolase (EC 2.2.1.1) of E. coli, wild type; monomeric molecular weight 73035.5 g/mol as printed; The preparation is a mixture; By mass spectrometry about 31% carries one or two extra oxygen atoms (TKhigh, most likely Cys157 sulfenic or sulfinic acid) and the rest is unmodified (TKlow); also called TK; apoTK; source: E. coli XL10-gold, from the plasmid pQR791, purified, ultrafiltrated and …
On to B1, for which the “stoichiometry N” value in series [3] is 2.
